One experiment addresses T1, Aryl hydrocarbon receptor (Mus musculus, UniProt P30561).
T1 sequence (P30561 whole entry): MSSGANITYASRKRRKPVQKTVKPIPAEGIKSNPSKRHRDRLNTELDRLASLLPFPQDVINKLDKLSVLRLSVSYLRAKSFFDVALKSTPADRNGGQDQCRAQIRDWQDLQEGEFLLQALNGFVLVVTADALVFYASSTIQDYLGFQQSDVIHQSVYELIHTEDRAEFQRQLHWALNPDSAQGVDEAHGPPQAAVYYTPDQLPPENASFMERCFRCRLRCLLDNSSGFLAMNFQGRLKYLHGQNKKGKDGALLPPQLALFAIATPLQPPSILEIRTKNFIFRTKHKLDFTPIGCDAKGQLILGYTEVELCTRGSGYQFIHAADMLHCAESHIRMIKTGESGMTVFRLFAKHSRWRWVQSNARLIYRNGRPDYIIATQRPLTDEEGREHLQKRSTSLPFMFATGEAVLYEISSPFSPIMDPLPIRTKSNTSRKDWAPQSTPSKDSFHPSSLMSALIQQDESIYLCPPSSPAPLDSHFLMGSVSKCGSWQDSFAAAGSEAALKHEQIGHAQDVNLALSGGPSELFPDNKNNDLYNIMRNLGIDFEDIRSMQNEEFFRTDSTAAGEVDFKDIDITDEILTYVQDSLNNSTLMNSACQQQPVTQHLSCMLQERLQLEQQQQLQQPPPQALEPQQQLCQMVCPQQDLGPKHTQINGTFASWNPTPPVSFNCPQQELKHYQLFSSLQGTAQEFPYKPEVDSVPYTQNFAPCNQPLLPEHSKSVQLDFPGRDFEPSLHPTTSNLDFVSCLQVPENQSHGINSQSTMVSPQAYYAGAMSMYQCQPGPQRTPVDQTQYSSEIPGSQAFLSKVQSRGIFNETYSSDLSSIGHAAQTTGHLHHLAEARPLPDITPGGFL
Kind of experiment: Antagonist activity at AhR receptor in TCDD-stimulated mouse CD34-positive cell assessed as decrease in CYP1B1 mRNA expression.
Details: not given
In general, IC50 refers to the concentration at which inhibition is half-maximal. On to `CC(C)n1cnc2c(NCCc3ccc(O)cc3)nc(-c3csc4ccccc34)nc21`, for which the concentration for half-maximal inhibition (IC50) turned out to be 127 nM.

For a further experiment, the target named is T2, Aryl hydrocarbon receptor (Homo sapiens, UniProt P35869).
T2 sequence (P35869 whole entry): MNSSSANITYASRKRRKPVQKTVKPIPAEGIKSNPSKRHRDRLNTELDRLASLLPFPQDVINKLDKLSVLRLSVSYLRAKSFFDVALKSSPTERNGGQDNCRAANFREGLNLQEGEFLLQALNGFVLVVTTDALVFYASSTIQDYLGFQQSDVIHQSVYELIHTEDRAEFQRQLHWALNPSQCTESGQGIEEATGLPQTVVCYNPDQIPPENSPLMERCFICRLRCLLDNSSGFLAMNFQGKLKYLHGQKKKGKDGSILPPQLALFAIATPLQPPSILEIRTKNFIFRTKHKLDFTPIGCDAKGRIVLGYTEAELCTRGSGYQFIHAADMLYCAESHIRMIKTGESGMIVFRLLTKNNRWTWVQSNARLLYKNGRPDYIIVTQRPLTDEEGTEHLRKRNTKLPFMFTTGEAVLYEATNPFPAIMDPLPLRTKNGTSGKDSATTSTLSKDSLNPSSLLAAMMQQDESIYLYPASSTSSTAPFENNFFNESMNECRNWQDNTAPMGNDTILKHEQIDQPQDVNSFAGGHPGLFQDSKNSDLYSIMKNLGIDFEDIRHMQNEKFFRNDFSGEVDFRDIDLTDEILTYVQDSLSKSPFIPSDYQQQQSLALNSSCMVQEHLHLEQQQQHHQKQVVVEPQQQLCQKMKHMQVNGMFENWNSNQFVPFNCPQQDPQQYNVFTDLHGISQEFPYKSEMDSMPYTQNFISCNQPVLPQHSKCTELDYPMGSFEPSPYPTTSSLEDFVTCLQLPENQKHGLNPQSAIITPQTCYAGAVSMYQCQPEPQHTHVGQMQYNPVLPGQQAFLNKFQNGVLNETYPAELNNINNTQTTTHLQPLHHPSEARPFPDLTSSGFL
The following applies: Huh-7, human, 20 h, read-out: Activity.
Description: Antagonist activity at AHR receptor in human Huh-7 cells transfected with CYP1A1 regulated luciferase reporter gene assessed as inhibition of TCDD-induced receptor activation at 25 uM incubated for 20 hrs by dual luciferase assay relative to control
Take `C=CCn1c(SC(C)C(=O)NC(N)=O)nnc1-c1cc2c(s1)CCC(C(C)(C)C)C2` (configuration not stated): the inhibition at 25 µM came out at 21%. Still for that read-out and setting: in the case of `NC(=O)C1CN(C(=O)c2cc(-c3ccc(Cl)cc3)nn2-c2ccccc2)c2ccccc2O1` (configuration not stated) it was 23.6%.

The target in the next experiment is T2, Aryl hydrocarbon receptor. The following applies: Huh-7, human, 20 h, read-out: Activity. The source holds these as a separate data set.
Description: Antagonist activity at AHR receptor in human Huh-7 cells transfected with CYP1A1 regulated luciferase reporter gene assessed as inhibition of receptor activation at 25 uM incubated for 20 hrs by dual luciferase assay relative to control
Take `C=CCn1c(SC(C)C(=O)NC(N)=O)nnc1-c1cc2c(s1)CCC(C(C)(C)C)C2` (configuration not stated): the inhibition at 25 µM was 1.4%. Still for that read-out and setting: then `NC(=O)C1CN(C(=O)c2cc(-c3ccc(Cl)cc3)nn2-c2ccccc2)c2ccccc2O1` (configuration not stated), with 28%.

A further experiment has as its target T2, Aryl hydrocarbon receptor.
Details: not given
Turning to `CS(=O)(=O)Nc1ccccc1-c1cnn2c(NCCOCCO)cc(-c3ccccc3)nc12`, the IC50 is 654 nM.

The molecule `CC(C)(C)c1cccc(-c2cnn3c(NCCOCCO)cc(-c4ccccc4)nc23)c1` had an IC50 of 29500 nM. As for `COc1ccccc1-c1cnn2c(NCCOCCO)cc(-c3ccccc3)nc12`, the half-inhibitory concentration (IC50) is 320 nM.

For the molecule `Cc1ccc(-c2cc(NCCOCCO)n3ncc(-c4ccccc4)c3n2)cc1`, the concentration for half-maximal inhibition (IC50) was 189 nM. With `c1ccc(-c2cc(Nc3cnc[nH]3)n3ncc(-c4ccccc4)c3n2)cc1`, the IC50 turned out to be 121 nM. Still for that read-out and setting: then `OCCOCCNc1cc(-c2ccccc2)nc2c(-c3ccccc3OC(F)(F)F)cnn12`, with 396 nM; and `COC(=O)c1ccccc1-c1cnn2c(NCCOCCO)cc(-c3ccccc3)nc12`, with 359 nM.

The values above are taken from ChEMBL document CHEMBL6083203, “Discovery and optimisation of pyrazolo[1,5-a]pyrimidines as aryl hydrocarbon receptor antagonists” (RSC Med Chem, 2024).
